The target in the assay is T1, Recombinant human CETP (Homo sapiens, UniProt P11597).
T1 construct: made in house; host or cells: CHO cells (secreted into conditioned medium)
T1 sequence (P11597 18-493): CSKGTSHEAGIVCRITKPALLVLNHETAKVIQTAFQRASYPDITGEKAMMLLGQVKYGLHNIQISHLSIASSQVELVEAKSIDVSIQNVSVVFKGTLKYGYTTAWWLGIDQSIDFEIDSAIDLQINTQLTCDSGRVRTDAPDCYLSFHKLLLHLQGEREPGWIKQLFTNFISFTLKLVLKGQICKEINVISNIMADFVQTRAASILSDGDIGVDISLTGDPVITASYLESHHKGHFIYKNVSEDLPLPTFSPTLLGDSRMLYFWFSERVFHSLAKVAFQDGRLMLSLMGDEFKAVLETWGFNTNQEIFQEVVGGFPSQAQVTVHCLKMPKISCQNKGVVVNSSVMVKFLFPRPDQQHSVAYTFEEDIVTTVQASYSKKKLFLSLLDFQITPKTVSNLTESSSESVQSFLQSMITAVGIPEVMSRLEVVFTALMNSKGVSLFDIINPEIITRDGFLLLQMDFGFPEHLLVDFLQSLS
In words: CETP in vitro assay (fluorometric assay, Roar Biomedical; cholesterol ester transfer from HDL to LDL). It is filed as biochemical. The conditions noted are these: recombinant human CETP from CHO cells; 3 hours at 37° C.; fluorescence 485/535 nm; compound concentrations between 1 nM and 30 μM; read-out: IC50 values for inhibition of CETP. In outline:
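Fluorometric transfer assay using donor and acceptor particles with recombinant human CETP partially purified from conditioned medium of CETP-expressing CHO cells. Compound in DMSO incubated 3 hours at 37° C; fluorescence Ex 485/Em 535 nm. IC50 from dose-effect curves over 1 nM to 30 μM.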

Structures are written as SMILES.

The source of these data is patent publication US9029544B2, “Tricyclic pyridine derivatives, medicaments containing such compounds, their use and process for their preparation” (Boehringer Ingelheim International GmbH, priority 2010, dated 2015).

With `CC(C)c1nc2c(c3c1[C@@H](c1ncc(C(F)(F)F)cc1F)OC31CCOCC1)[C@@H](O)CC(C)(C)C2` [5(2), (3S,9S)-3-(3-fluoro-5-(trifluoromethyl)pyridin-2-yl)-4-isopropyl-7,7-dimethyl-2′,3′,5′,6,6′,7,8,9-octahydro-3H-spiro[furo[3,4-c]quinoline-1,4′-pyran]-9-ol], the IC50 (usually the midpoint of a concentration-inhibition curve) is 206 nM.
Turning to `CC1(C)Cc2nc(C3CCOCC3)c3c(c2[C@@H](O)C1)C1(CCOCC1)O[C@@H]3c1ccc(C(F)(F)F)nc1` [1(76), (3R,9S)-7,7-dimethyl-4-(tetrahydro-2H-pyran-4-yl)-3-(6-(trifluoromethyl)pyridin-3-yl)-2′,3′,5′,6,6′,7,8,9-octahydro-3H-spiro[furo[3,4-c]quinoline-1,4′-pyran]-9-ol], the IC50 came to 886 nM.
On to `CC(C)c1nc2c(c3c1[C@@H](c1ccc(S(F)(F)(F)(F)F)cc1)OC31CCOCC1)[C@@H](O)CC1(CCC1)C2` [1(69), (3R,9S)-4-isopropyl-7,7-(propan-1,3-diyl)-3-(4-(pentafluorosulfanyl)phenyl)-2′,3′,5′,6,6′,7,8,9-octahydro-3H-spiro[furo[3,4-c]quinoline-1,4′-pyran]-9-ol], for which the IC50 was 14 nM.
Consider `CC(C)c1nc2c(c3c1[C@@H](c1ccc(C(F)(F)F)nc1)OC31CCOCC1)[C@@H](O)CC1(CCC1)[C@H]2O` [Example 5, (3R,6R,9S)-4-isopropyl-7,7-(propan-1,3-diyl)-3-(6-(trifluoromethyl)pyridin-3-yl)-2′,3′,5′,6,6′,7,8,9-octahydro-3H-spiro[furo[3,4-c]quinoline-1,4′-pyran]-6,9-diol], for which the IC50 amounted to 13 nM.
Turning to `CC1(C)C[C@H](O)c2c(nc(C3CCOCC3)c3c2C2(CCCC2)O[C@@H]3c2ccc(S(F)(F)(F)(F)F)cc2)[C@@H]1O` [4(6), (3′R,6′R,9′S)-7′,7′-dimethyl-4′-(tetrahydro-2H-pyran-4-yl)-3′-(4-(pentafluorosulfanyl)phenyl)-6′,7′,8′,9′-tetrahydro-3′H-spiro[cyclopentane-1,1′-furo[3,4-c]quinoline]-6′,9′-diol], the IC50 is 19 nM.
To `CC(C)c1nc2c(c3c1[C@@H](c1ccc(C(F)(F)F)cc1)OC31CCOCC1)[C@@H](O)CC1(CCC1)[C@H]2O` [5(1), (3R,6R,9S)-4-isopropyl-7,7-(propan-1,3-diyl)-3-(4-(trifluoromethyl)phenyl)-2′,3′,5′,6,6′,7,8,9-octahydro-3H-spiro[furo[3,4-c]quinoline-1,4′-pyran]-6,9-diol] belongs 78 nM.
The value for `O[C@H]1CC2(CCC2)Cc2nc(C3CCOCC3)c3c(c21)C1(CCOCC1)O[C@@H]3c1ccc(C(F)(F)F)cc1` [1(77), (3R,9S)-7,7-(propan-1,3-diyl)-4-(tetrahydro-2H-pyran-4-yl)-3-(4-(trifluoromethyl)phenyl)-2′,3′,5′,6,6′,7,8,9-octahydro-3H-spiro[furo[3,4-c]quinoline-1,4′-pyran]-9-ol] was 39 nM; that for `CC(=O)O[C@H]1c2nc(C(C)C)c3c(c2[C@@H](O)CC1(C)C)C1(CCCC1)O[C@@H]3c1ccc(C(F)(F)F)nc1` [1(46), (3′R,6′R,9′S)-9′-hydroxy-4′-isopropyl-7′,7′-dimethyl-3′-(6-(trifluoromethyl)pyridin-3-yl)-6′,7′,8′,9′-tetrahydro-3′H-spiro[cyclopentane-1,1′-furo[3,4-c]quinoline]-6′-yl acetate] was 1830 nM.
